These results are taken from US10301630B2, “Methods and compositions for unsilencing imprinted genes” (The University of North Carolina at Chapel Hill, priority 2010, dated 2019).

The test system of the test is paternal Ube3a-YFP allele. In words: High-content imaging of paternal Ube3a-YFP unsilencing in primary cortical neurons. To be noted: 72 h; for EC50: unsilencing paternal Ube3a-YFP; for Potency EC20 / EC20 / Potency EC20 (nM): 1 nM to 30 μM; for EC20: read-out: Potency EC20; for unsilencing of paternal Ube3a-YFP in dose-response experiments: cultured Ube3a m+/pYFP neurons. Format: cell-based, mouse. The protocol:
In all screening assays, primary cortical neurons from Ube3a-YFP mice are isolated from embryonic day 15.5 animals, and the genotype of animals is determined to identify mice that encode the Ube3a-YFP transgene on the paternal allele. Freshly isolated cortical neurons are seeded into 384 well plates and cultured for 7 days. At day in vitro seven, screening is performed using multiple chemical libraries and compound concentration of 10 μM in 0.2% DMSO vehicle. After 72 h of drug exposure (run in quadruplicate wells), neurons are fixed with 4% para formaldehyde and processed for immunofluorescence using an anti-GFP-Alexa 488 conjugated antibody to enhance the signal of Ube3a-YFP in neurons. For image analyses, individual wells of immunofluorescence-processed plates are imaged fro DAPI and GFP fluorescence using the BD-Pathway 855 high-content imaging microscope. Ube3a-YFP fluorescence intensities in individual neurons are determined in drug-treated wells and normalized to 0.2% DMSO-treated (i.e., vehicle control) wells using custom written macros and algorithms using NIH Image J and Arrayscan Cell Profiler software programs. These image analyses enable masking of nuclei in individual neurons and determination of Ube3a-YFP fluorescence intensity in the nuclei of individual neurons.
For these studies, DIV 7 primary neurons encoding paternal Ube3a-YFP are dose treated with hit compounds across seven orders of magnitude in full and half log molar concentrations (3 pM to 30 μM). Ube3a-YFP fluorescence intensities in living neurons are determined again by high-content imaging microscopy after 72 h treatments. The dose response results are analyzed by least squares sigmoidal dose-response curve fitting models using Graphpad Prism 5.0 (Graphpad Software, Inc.). The calculated EC50 values (potencies) and Y value top plateau (estimated efficacies or Emax) enable comparative analyses of the relative potency and efficacy of the identified compounds.
Primary cortical neurons were isolated from E13.5-16.5 Ube3a-YFP mice. Screening was performed in quadruplicate at DIV7 using multiple chemical libraries and a compound concentration of 10 μM in 0.2% DMSO vehicle. After 72 h of drug exposure, neurons were fixed with 4% paraformaldehyde in PBS for 35 min, permeabilized with 0.3% Triton X-100 in PBS on ice for 30 min, and blocked by 5% goat serum with 0.1% Triton X-100 in PBS at room temperature for 1 hr. Cells were incubated with a rabbit polyclonal antibody to GFP (1:1000, Novus Biologicals, NB600-308) at room temperature for 1 hr and then incubated with Alexa Fluor 488 goat antibody to rabbit IgG (1:200, Invitrogen, A11008) and DAPI (1:10,000, Invitrogen, D-1306) at room temperature for 30 min. Individual wells of immunofluorescence-processed plates were imaged for DAPI or Alexa 488 fluorescence using the BD Pathway 855 high-content imaging microscope with a 488 excitation/515 long pass filter. Antibody-enhanced UBE3A-YFP fluorescence intensities were determined from individual neurons in drug-treated wells and normalized to neurons in wells treated with 0.2% DMSO (vehicle control). Analyses were performed with custom macros and algorithms using NIH Image J and Arrayscan Cell Profiler software programs (Thermo Scientific/Cellomics). These image analyses enabled masking of nuclei in individual neurons and determination of UBE3A-YFP fluorescence intensities in the nuclei of individual neurons (FIG. 16).
DIV7 primary neurons from Ube3a^m+/pYFP mice were dose-treated for 72 h with topoisomerase I and II inhibitors in ten point dose-responses in full and half log molar concentrations (1 nM to 30 μM). Neurons were fixed, processed for immunofluorescence, and UBE3A-YFP fluorescence intensities were again determined by high-content imaging microscopy.

Setting [1] is: Table 1, Ube3a-YFP fluorescence intensity above control cells (0.2% DMSO treated), cortical neurons.
The mark [2] stands for this setting: Table 1, cortical neurons, read-out: EC50.
Where [3] appears, read: Table 3, unsilencing the paternal allele of Ube3a-YFP in cultured neurons.
[4] abbreviates: Mus musculus, Neuron, Table 3, unsilencing the paternal allele of Ube3a-YFP in cultured neurons.
[5] abbreviates: Mus musculus, Neuron, Table 3, unsilencing the paternal allele of Ube3a-YFP in cultured neurons, read-out: Efficacy Emax (fold over vehicle).
The mark [6] stands for this setting: Mus musculus, Cortical neurone, Table 1, Ube3a-YFP fluorescence intensity above control cells (0.2% DMSO treated), cortical neurons, read-out: Efficacy Emax (fold over control).
Where [7] appears, read: Mus musculus, Cortical neurone, Table 1, cortical neurons, read-out: EC50.

Like-named read-outs stand apart in the source and are kept apart here.

By EC50 is commonly meant the concentration giving half of the maximal effect. `CCc1c2c(nc3ccccc13)-c1cc3c(c(=O)n1C2)COC(=O)[C@]3(O)CC` [7-Ethyl-CPT, 7-Ethyl-Camptothecin]: the “Efficacy Emax (fold over control)” value under setting [1] is reported as 1.68 ± 0.05 fold over control. The 50% effective concentration (EC50) under setting [2] is 49 ± 1.3 nM. Further, under setting [3], the “Efficacy Emax (fold over vehicle)” value was 1.70 ± 0.04 fold over vehicle and the “Potency EC20” value is 7.2 ± 2.3 nM.
For orientation: EC20 means the concentration needed for an effect of 20%. As to `COc1cc([C@@H]2c3cc4c(cc3[C@@H](O[C@@H]3O[C@@H]5CO[C@@H](C)O[C@H]5[C@H](O)[C@H]3O)[C@H]3COC(=O)[C@H]23)OCO4)cc(OC)c1O` [Etoposide], the “unsilencing of paternal Ube3a-YFP in dose-response experiments” value (shortened to “unsilencing of paternal Ube3a-YFP”) was “unsilenced the paternal Ube3a-YFP allele”. Under setting [4], the EC20 was determined as 1600 ± 980 nM. Besides, the maximal fold induction under setting [5] turned out to be 1.68 ± 0.04.
As for `COc1cc(NS(C)(=O)=O)ccc1Nc1c2ccccc2nc2ccccc12` [Amsacrine], the maximal fold induction runs as follows: under setting [6], 1.65 ± 0.05; under setting [5], 1.74 ± 0.06. Further, under setting [7], the 50% effective concentration (EC50) was 28 ± 10 nM. Besides, the EC20 under setting [4] came out at 27 ± 5.2 nM.
As to `C[C@@H](CN1CC(=O)NC(=O)C1)N1CC(=O)NC(=O)C1` [Dexrazoxane (ICRF-187), Dexrazoxane], the “unsilencing of paternal Ube3a-YFP” value is “unsilenced the paternal Ube3a-YFP allele”. Besides, the 20% effect concentration (EC20) under setting [4] came to 20500 ± 1450 nM. In addition, under setting [5], the maximal fold induction came out at 1.82 ± 0.05.
As for `CC[C@@]1(O)C(=O)OCc2c1cc1n(c2=O)Cc2c-1nc1ccc(O)cc1c2[Si](C)(C)C(C)(C)C` [Silatecan (DB67), Silatecan], the maximal fold induction is 1.71 ± 0.06 under setting [6] and 1.65 ± 0.05 under setting [5]. Also, under setting [7], the EC50 was found to be 2640 ± 95 nM. For the same compound, under setting [4], the EC20 was 2240 ± 171 nM.
In the case of `COc1cc2c3c(n(CCCN4CCOCC4)c(=O)c2cc1OC)-c1cc2c(cc1C3=O)OCO2` [NSC724998], the “Efficacy Emax (fold over control)” value under setting [1] is reported as 1.65 ± 0.03 fold over control. In addition, the concentration for a half-maximal effect (EC50) under setting [2] worked out at 12 ± 4 nM. Moreover, under setting [3], the “Efficacy Emax (fold over vehicle)” value was 1.69 ± 0.03 fold over vehicle and the “Potency EC20” value was 14 ± 2.2 nM.
For `CC[C@@]1(O)C(=O)OCc2c1cc1n(c2=O)Cc2c-1nc1ccccc1c2CCNC(C)C` [Belotecan (CKD602), Belotecan], the maximal fold induction worked out at 1.85 ± 0.04 under setting [6] and 1.88 ± 0.05 under setting [5]. In addition, under setting [7], the EC50 was found to be 18 ± 1.1 nM. Besides, the concentration for an effect of 20% (EC20) under setting [4] turned out to be 19 ± 4.4 nM.
On the same counts, the results for `CC[C@@]1(O)C(=O)OCc2c1cc1n(c2=O)Cc2cc3c([N+](=O)[O-])cccc3nc2-1` [Rubitecan (9-Nitro-CPT), Rubitecan] are 2.07 ± 0.08, 2.09 ± 0.09, 43 ± 9.1 nM and 62 ± 18 nM.
Consider `CCc1c2c(nc3ccc(O)cc13)-c1cc3c(c(=O)n1C2)COC(=O)[C@]3(O)CC` [7-Ethyl-10-Hydroxy-CPT], for which, under setting [1], the “Efficacy Emax (fold over control)” value worked out at 2.00 ± 0.09 fold over control. Besides, under setting [2], the 50% effective concentration (EC50) turned out to be 33 ± 1.3 nM. In addition, under setting [3], the “Efficacy Emax (fold over vehicle)” value is 1.99 ± 0.06 fold over vehicle and the “Potency EC20” value came out at 11 ± 3.2 nM.
On the same counts, the results for `CC[C@@]1(O)C(=O)OCc2c1cc1n(c2=O)Cc2cc3cc(O)ccc3nc2-1` [10-Hydroxy-CPT] are 1.68 ± 0.06 fold over control, 40 ± 1.4 nM, 1.82 ± 0.08 fold over vehicle and 14 ± 5.7 nM.
Consider ICRF-193, for which the “unsilencing of paternal Ube3a-YFP” value was “unsilenced the paternal Ube3a-YFP allele”. This compound registered a 50% effective concentration (EC50) (Table 1, cortical neurons) of 131 ± 13 nM. The “Potency EC20 (nM)” value under setting [3] was 205 ± 70^ nM.
With `COc1cc2c3c(n(CCCn4ccnc4)c(=O)c2cc1OC)-c1cc2c(cc1C3=O)OCO2` [NSC725776], under setting [1], the “Efficacy Emax (fold over control)” value worked out at 1.82 ± 0.05 fold over control. Moreover, under setting [2], the EC50 worked out at 9.2 ± 2 nM. Moreover, under setting [3], the “Efficacy Emax (fold over vehicle)” value is given as 1.76 ± 0.03 fold over vehicle and the “Potency EC20” value turned out to be 10 ± 1.6 nM.
For `COc1cc2c3c(n(CCCNCCO)c(=O)c2cc1OC)-c1cc2c(cc1C3=O)OCO2` [NSC706744] the same measures were 1.76 ± 0.03 fold over control, 6.2 ± 2 nM, 1.84 ± 0.07 fold over vehicle and 11 ± 3.2 nM.
As to `CC[C@@]1(O)C(=O)OCc2c1cc1n(c2=O)Cc2cc3ccccc3nc2-1` [Camptothecin (CPT), Camptothecin], the maximal fold induction is 1.66 ± 0.06 under setting [6] and 2.11 ± 0.05 under setting [5]. Besides, the EC50 under setting [7] worked out at 32 ± 1.3 nM. Under setting [4], the EC20 is 21 ± 3.8 nM.
Turning to `CC[C@@]1(O)C(=O)NCc2c1cc1n(c2=O)Cc2cc3ccccc3nc2-1` [Lactam E ring-CPT (inactive), Lactam E ring-CPT], the “unsilencing of paternal Ube3a-YFP” value is given as “failed to unsilence the paternal Ube3a-YFP allele”. Under setting [3], the “Efficacy Emax (fold over vehicle)” value was “inactive” and the “Potency EC20 (nM)” value is “inactive”.
